Experimental data reported in PubChem BioAssay AID330 (DTP/NCI, 2004).
Values joined by “and” are separate entries in the source; they are usually repeats but may differ in a detail not shown here. Identical values can stand only once. Inconclusive results and toxic doses are left out. Rule for the calls: active = survival T/C of 150% or more; inactive = T/C below 125% in these data.

Test system: P388 leukemia ip, CD2F1 mice, survival T/C
Experiment: NCI In Vivo Anticancer Drug Screen. Data for tumor model P388 Leukemia (intraperitoneal) in CD2F1 (CDF1) mice
Details: endpoint: median survival time, higher = longer survival
Method in brief: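 Mice carrying the transplanted tumor received test compound or vehicle. Survival was recorded in each group, and the value is the treated-group measurement divided by that of the vehicle-treated control group.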

[1] = dose: 50.0 mg/kg/injection, schedule: Q01DX009 (ip), vehicle: saline with Tween-80
[2] = dose: 100.0 mg/kg/injection, schedule: Q01DX009 (ip), vehicle: saline with Tween-80
[3] = dose: 200.0 mg/kg/injection, schedule: Q01DX009 (ip), vehicle: saline with Tween-80
[4] = dose: 50.0 mg/kg/injection, schedule: Q04DX003 (ip), vehicle: saline
[5] = dose: 100.0 mg/kg/injection, schedule: Q04DX003 (ip), vehicle: saline
[6] = dose: 400.0 mg/kg/injection, schedule: Q04DX003 (ip), vehicle: saline
[7] = dose: 200.0 mg/kg/injection, schedule: Q04DX003 (ip), vehicle: saline

Measured: T/C

CC(=O)Nc1nc(C)c(CCCOc2ccc([N+](=O)[O-])cc2)c(=O)[nH]1
inactive: dose: 60.0 mg/kg/injection, schedule: Q01DX005 (ip), vehicle: Klucel (hydroxypropylcellulose) (HPC) 86 % of control | dose: 120.0 mg/kg/injection, schedule: Q01DX005 (ip), vehicle: Klucel (hydroxypropylcellulose) (HPC) 86 % of control

CC(C)C(NN)C(=O)O (stereo not given)
inactive: dose: 50.0 mg/kg/injection, schedule: Q01DX005 (ip), vehicle: saline with Tween-80 98 % of control | dose: 100.0 mg/kg/injection, schedule: Q01DX005 (ip), vehicle: saline with Tween-80 116 % of control

CCC(CC)C[Se][Se]CC(CC)CC
inactive: dose: 6.25 mg/kg/injection, schedule: Q01DX009 (ip), vehicle: Klucel (hydroxypropylcellulose) (HPC) 100 % of control | dose: 12.5 mg/kg/injection, schedule: Q01DX009 (ip), vehicle: Klucel (hydroxypropylcellulose) (HPC) 101 % of control | dose: 25.0 mg/kg/injection, schedule: Q01DX009 (ip), vehicle: Klucel (hydroxypropylcellulose) (HPC) 103 % of control

CCOC(=O)c1ccc(S(C)(=O)=O)cc1
inactive: dose: 25.0 mg/kg/injection, schedule: Q01DX009 (ip), vehicle: saline with Tween-80 104 % of control | [1] 95 % of control | [2] 100 % of control | [3] 100 % of control

C=C1C=[n+]2ccccc2=N1
inactive: dose: 25.0 mg/kg/injection, schedule: Q01DX009 (ip), vehicle: saline 93 % of control | dose: 50.0 mg/kg/injection, schedule: Q01DX009 (ip), vehicle: saline 96 % of control

O=C(CCS(=O)(=O)CCC(=O)c1ccc2ccccc2c1)c1ccc2ccccc2c1
inactive: dose: 25.0 mg/kg/injection, schedule: Q04DX003 (ip), vehicle: saline 102 % of control | [4] 99 % of control | [5] 92 % of control and 98 % of control | [6] 88 % of control

CCOC(=O)Nc1nc2cc(C(=O)OC)n(C)c2s1
inactive: [1] 95 % of control | [2] 86 % of control | [3] 88 % of control

CCOC(=O)NC(NC(=O)OCC)c1ccccc1
inactive: [5] 100 % of control | [7] 98 % of control | [6] 92 % of control

Nc1nnc(Cc2ccccc2[N+](=O)[O-])c(=O)[nH]1
inactive: dose: 50.0 mg/kg/injection, schedule: Q01DX009 (ip), vehicle: Klucel (hydroxypropylcellulose) (HPC) 113 % of control | dose: 100.0 mg/kg/injection, schedule: Q01DX009 (ip), vehicle: Klucel (hydroxypropylcellulose) (HPC) 115 % of control | dose: 200.0 mg/kg/injection, schedule: Q01DX009 (ip), vehicle: Klucel (hydroxypropylcellulose) (HPC) 105 % of control

CCOc1cc(C(C)c2ccc(OC)cc2)c(OCC)cc1OC (stereo not given)
inactive: dose: 60.0 mg/kg/injection, schedule: Q01DX005 (ip), vehicle: saline with Tween-80 106 % of control | dose: 120.0 mg/kg/injection, schedule: Q01DX005 (ip), vehicle: saline with Tween-80 100 % of control | dose: 240.0 mg/kg/injection, schedule: Q01DX005 (ip), vehicle: saline with Tween-80 103 % of control

C=C1CCC2C(c3c(C)c(O)c4c(c31)C(=O)C(C)C4)C2(C)C (stereo not given)
inactive: dose: 3.0 mg/kg/injection, schedule: Q01DX009 (ip), vehicle: Klucel (hydroxypropylcellulose) (HPC) 110 % of control | dose: 6.0 mg/kg/injection, schedule: Q01DX009 (ip), vehicle: Klucel (hydroxypropylcellulose) (HPC) 108 % of control | dose: 12.0 mg/kg/injection, schedule: Q01DX009 (ip), vehicle: Klucel (hydroxypropylcellulose) (HPC) 103 % of control | dose: 24.0 mg/kg/injection, schedule: Q01DX009 (ip), vehicle: Klucel (hydroxypropylcellulose) (HPC) 108 % of control

COC(OC)c1cc(=O)[nH]c(=S)[nH]1
inactive: [4] 95 % of control | [5] 96 % of control | [7] 93 % of control | [6] 104 % of control

C[N+](C)(C)[C@H]1CCCC[C@@H]1O
inactive: dose: 50.0 mg/kg/injection, schedule: Q01DX005 (ip), vehicle: distilled water + alcohol 104 % of control | dose: 100.0 mg/kg/injection, schedule: Q01DX005 (ip), vehicle: distilled water + alcohol 99 % of control | dose: 200.0 mg/kg/injection, schedule: Q01DX005 (ip), vehicle: distilled water + alcohol 105 % of control

CC1=NOC(=O)C1N=Nc1ccc(Br)cc1C (stereo not given)
inactive: dose: 100.0 mg/kg/injection, schedule: Q04DX002 (ip), vehicle: saline with Tween-80 101 % of control | dose: 100.0 mg/kg/injection, schedule: Q05DX002 (ip), vehicle: saline with Tween-80 99 % of control | dose: 200.0 mg/kg/injection, schedule: Q04DX002 (ip), vehicle: saline with Tween-80 98 % of control | dose: 200.0 mg/kg/injection, schedule: Q05DX002 (ip), vehicle: saline with Tween-80 99 % of control | dose: 400.0 mg/kg/injection, schedule: Q04DX002 (ip), vehicle: saline with Tween-80 102 % of control
